Patent US20140271885A1, “COPOLYMERS FOR STABLE MICELLE FORMULATIONS” (Intezyne Technologies, Inc., priority 2013, published 2014)

Details: rat, in vivo, iv, 10 mg/kg
Description: The delivery vehicle for drug administration was isotonic saline. Rat blood was collected from the catheter into K2-EDTA tubes […] at time points of 1, minute, 5 minutes, 15 minutes, 1 hour, 4 hours, 8 hours and 24 hours. Plasma was isolated by centrifugation at 1000 RPM for 5 minutes, and 150 uL of extraction solution (ice cold methanol/100 ng/mL daunorubicin internal standard) was added to 50 uL of each plasma sample. Samples were then vortexed for 10 minutes, centrifuged at 13,000 RPM for 10 minutes, and 150 uL of the supernatant is transferred to HPLC vials for analysis. […] A 5 μL sample injection was made onto a Waters 4 μm Nova Pak C18 (3.9×150 mm) at 30° C. with a flow rate of 0.750 mL per minute of 10 mM phosphate buffer (pH=1.4), methanol and acetonitrile (gradient from 70/10/20 to 40/10/50 for buffer/methanol/acetonitrile was made over eight minutes).

AUC (area under the concentration versus time curve, exposure of daunorubicin to the plasma compartment): 1.3 µg·h/mL | Half-life (terminal, elimination): 3.3 h
Compound: COc1cccc2c1C(=O)c1c(O)c3c(c(O)c1C2=O)C[C@@](O)(C(C)=O)C[C@@H]3O[C@H]1C[C@H](N)[C@H](O)[C@H](C)O1 [Free Daunorubicin, daunorubicin]
